This is an account of results in patent US20240398811A1, “PRC2 INHIBITORS FOR USE IN TREATING BLOOD DISORDERS” (ORIC Pharmaceuticals, Inc., priority 2021, published 2024).

In series [1] the target is purified human, His-tagged PRC2 complex (Homo sapiens (Human), UniProt O75530). Nature of the series: Hot Spot HMT assay, inhibition of PRC2 enzymatic activity. The series is classed as biochemical. The note with it: 10 nM PRC2 complex, 1 μM 3H-SAM, core histone H3, 10-point dose-response. In a few lines: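 Five-subunit PRC2 complex (EZH2, EED, SUZ12, AEBP2, RbAp48; 10 nM) preincubated 20 min at 30° C with compound (top 1.0 μM) and 0.05 mg/ml core histone H3 in Tris-HCl, 1% DMSO. Started with 1 μM [3H]SAM, 1 hr at 30° C; tritiated H3 measured by filter binding and scintillation.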
purified human, His-tagged PRC2 complex, sequence (O75530 whole entry): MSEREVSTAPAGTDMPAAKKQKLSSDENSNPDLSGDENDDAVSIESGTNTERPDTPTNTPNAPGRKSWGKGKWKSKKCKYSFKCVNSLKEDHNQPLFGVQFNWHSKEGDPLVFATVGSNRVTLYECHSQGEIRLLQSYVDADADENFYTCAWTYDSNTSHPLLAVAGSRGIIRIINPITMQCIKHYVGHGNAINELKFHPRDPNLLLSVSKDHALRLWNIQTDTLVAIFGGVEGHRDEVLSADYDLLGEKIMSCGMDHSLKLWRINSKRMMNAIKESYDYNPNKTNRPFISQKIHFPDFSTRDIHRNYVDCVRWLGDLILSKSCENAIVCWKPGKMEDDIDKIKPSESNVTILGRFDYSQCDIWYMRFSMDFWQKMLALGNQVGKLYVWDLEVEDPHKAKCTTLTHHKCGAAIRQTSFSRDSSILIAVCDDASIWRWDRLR
purified human, His-tagged PRC2 complex, sequence (Q15910 whole entry partner): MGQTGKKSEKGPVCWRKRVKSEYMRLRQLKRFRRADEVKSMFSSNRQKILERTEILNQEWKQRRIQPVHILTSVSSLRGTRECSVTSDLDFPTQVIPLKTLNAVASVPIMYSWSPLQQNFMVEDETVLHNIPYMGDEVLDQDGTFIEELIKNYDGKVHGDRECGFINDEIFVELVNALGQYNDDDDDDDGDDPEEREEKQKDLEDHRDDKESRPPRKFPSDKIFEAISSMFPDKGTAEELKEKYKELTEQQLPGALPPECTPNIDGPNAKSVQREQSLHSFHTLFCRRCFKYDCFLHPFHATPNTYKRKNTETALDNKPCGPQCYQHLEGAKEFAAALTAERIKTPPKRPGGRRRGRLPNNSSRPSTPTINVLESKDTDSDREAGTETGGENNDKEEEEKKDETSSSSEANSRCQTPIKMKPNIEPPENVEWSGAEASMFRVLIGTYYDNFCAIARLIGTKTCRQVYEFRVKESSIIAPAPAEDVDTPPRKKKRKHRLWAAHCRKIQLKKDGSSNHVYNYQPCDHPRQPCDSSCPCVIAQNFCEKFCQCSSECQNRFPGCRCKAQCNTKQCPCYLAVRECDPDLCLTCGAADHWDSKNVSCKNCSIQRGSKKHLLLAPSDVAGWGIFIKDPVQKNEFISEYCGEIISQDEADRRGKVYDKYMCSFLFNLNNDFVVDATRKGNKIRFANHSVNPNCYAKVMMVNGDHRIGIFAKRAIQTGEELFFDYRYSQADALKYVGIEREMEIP
purified human, His-tagged PRC2 complex, sequence (Q15022 whole entry partner): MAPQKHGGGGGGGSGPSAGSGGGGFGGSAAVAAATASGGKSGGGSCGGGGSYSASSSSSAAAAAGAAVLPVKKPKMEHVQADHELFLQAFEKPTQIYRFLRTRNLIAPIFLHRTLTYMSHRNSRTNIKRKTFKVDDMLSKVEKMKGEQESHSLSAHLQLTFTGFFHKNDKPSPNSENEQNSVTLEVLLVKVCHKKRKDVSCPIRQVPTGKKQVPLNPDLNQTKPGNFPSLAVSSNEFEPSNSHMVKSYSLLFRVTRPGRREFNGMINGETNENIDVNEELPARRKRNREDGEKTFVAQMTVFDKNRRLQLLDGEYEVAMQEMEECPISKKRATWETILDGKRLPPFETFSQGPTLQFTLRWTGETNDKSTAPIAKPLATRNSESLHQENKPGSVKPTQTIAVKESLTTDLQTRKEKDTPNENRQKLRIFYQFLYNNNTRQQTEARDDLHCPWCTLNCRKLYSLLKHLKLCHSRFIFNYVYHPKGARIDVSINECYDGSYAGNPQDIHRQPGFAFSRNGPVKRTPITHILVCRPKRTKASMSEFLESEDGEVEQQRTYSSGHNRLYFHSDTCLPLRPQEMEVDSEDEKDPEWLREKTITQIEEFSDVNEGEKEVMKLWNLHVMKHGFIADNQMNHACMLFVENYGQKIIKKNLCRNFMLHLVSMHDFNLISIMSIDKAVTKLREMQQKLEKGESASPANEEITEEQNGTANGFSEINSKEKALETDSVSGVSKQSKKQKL
purified human, His-tagged PRC2 complex, sequence (Q6ZN18 whole entry partner): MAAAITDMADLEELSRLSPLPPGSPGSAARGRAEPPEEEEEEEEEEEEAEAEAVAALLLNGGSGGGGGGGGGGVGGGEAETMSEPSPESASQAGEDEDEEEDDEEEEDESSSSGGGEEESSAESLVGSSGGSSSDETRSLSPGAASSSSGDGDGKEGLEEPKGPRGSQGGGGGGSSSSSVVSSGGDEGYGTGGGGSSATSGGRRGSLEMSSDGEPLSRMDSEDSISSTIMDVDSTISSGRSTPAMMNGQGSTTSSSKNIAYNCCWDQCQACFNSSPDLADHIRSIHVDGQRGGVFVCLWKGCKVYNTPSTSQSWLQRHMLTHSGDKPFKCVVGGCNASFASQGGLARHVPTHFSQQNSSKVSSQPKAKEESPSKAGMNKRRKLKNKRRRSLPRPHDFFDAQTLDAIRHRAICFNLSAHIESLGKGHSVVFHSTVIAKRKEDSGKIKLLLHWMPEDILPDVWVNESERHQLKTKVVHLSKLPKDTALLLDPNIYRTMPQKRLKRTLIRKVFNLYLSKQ
purified human, His-tagged PRC2 complex, sequence (Q09028 whole entry partner): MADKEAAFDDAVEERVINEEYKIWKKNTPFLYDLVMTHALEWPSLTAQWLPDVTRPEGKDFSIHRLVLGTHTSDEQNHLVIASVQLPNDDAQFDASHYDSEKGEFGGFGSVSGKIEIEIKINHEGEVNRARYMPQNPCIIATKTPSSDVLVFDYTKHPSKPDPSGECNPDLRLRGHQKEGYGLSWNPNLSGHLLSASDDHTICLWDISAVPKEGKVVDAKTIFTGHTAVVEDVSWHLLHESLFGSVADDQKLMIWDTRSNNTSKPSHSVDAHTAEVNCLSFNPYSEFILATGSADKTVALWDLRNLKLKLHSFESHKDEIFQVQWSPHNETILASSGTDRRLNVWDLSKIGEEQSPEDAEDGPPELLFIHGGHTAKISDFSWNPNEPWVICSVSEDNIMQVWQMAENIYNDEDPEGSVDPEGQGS

The next series concerns HBG1 mRNA. Nature of the series: HBG1 mRNA levels by RT-qPCR in differentiated CD34+ cells. The series is classed as cell-based, human. The note with it: 7-day treatment. From the text:
(§1) Cell Culture and differentiation protocol. Human bone marrow derived CD34+ cells from healthy donors were purchased from StemCell (#70002.2). The CD34+ cells were differentiated using the STEMdiff™ Erythroid kit (StemCell #100-0074) according to manufacturer's instructions. The CD34+ cells were differentiated for 14 days, and the differentiation medium consisted of StemSpan™ SFEM II media and 10% of STEMdiff™ Erythroid Supplement E2 (10×). The CD34+ cells were thawed and plated in a 12-well plate (Corning #3512) at a density of 40,000 cells/well in 1 mL of differentiation media. 100 μL of STEMdiff™ Erythroid Supplement E2 (10×) was added to each well on Day 2, 4, 9 and 11 during differentiation. On day 7, cells were passaged and replated at a density of 167,000 cells/well in a 12-well plate. Flow cytometry was performed every 7 days to assess the stages of differentiation using anti-human CD71 and anti-human glycophorin A (CD235a) antibody (StemCell #60106AZ; #60152FI).
(§2) Treatment of differentiated CD34+ cells with compound Example 32 or hydroxyurea (HU). After 14 days of differentiation, cells were plated in a 12-well plate at a density of 150,000 cells/well in 1 mL differentiation media in quadruplets. The next day, cells were treated with vehicle, 7 concentrations of compound Example 32 in concentrations ranging from 15.625 nM to 1 μM ([…] serial dilution) and 20 μM of HU. 100 μL of STEMdiff™ Erythroid Supplement E2 (10×) was added to each well on Day 2 and 4. Cells were treated with vehicle, compound Example 32, or HU for 7 days and were then harvested for RT-qPCR and flow cytometry.
(§3) RNA extraction and RT-qPCR analysis. The cell pellets harvested for mRNA analysis were first washed once with PBS and then resuspended in 600 μL of RLT lysis buffer (from the Qiagen kit) supplemented with 1% of beta-mercaptoethanol (Sigma-Aldrich #M6250). […] The extracted RNA was then quantified using a NanoDrop™ 8000 Spectrophotometer (ThermoFisher #ND8000-GL, software version 2.3.2). […]

Series [2] deals with bone marrow derived CD34+ cells differentiated into erythroid progenitor cells. Nature of the series: Percentage of F cells (fetal hemoglobin containing cells) by flow cytometry in differentiated CD34+ cells. The format is cell-based, human. The note with it: 7-day treatment; for fold increase in % F cells: vs vehicle.
Excerpt: as §1, §2
Flow Cytometry. The cell pellets harvested for flow cytometry analysis were collected in a V-shaped 96-well polypropylene plate (ThermoFisher #249944). The cells were washed with PBS and resuspended in 100 μL of PBS. The cells were first stained with eFluor 450 viability dye (diluted 1:250 in cold PBS; Invitrogen #65-0863-14) for 5 minutes on ice in the dark followed by incubation in Fc receptor blocking solution for 10 minutes (BioLegend #422302). […] Cells were washed twice and resuspended in FACS buffer and then analyzed by flow cytometry. Data was acquired using SONY SA3800 cytometer (software version 2.0.4.13263) and analyzed using FlowJo.
Bone marrow derived CD34+ cells from two healthy human donors (donor A and donor B) were differentiated into erythroid progenitor cells (erythroblasts) expressing Glycophorin A and CD71. Fourteen-day differentiated cells were then treated with vehicle (veh), different concentrations of compound Example 32, or 20 μM HU for 7 days and cells were analyzed for increase in fetal hemoglobin levels at both mRNA and protein levels. […]

The next series concerns HBG2 mRNA. Nature of the series: HBG2 mRNA levels by RT-qPCR in differentiated CD34+ cells. The series is classed as cell-based, human. The conditions noted are these: 7-day treatment.
Excerpt: as §1, §2, §3
For orientation: Real-time PCR tracks product formation cycle by cycle.

The mark [3] stands for this setting: Donor A, normalized to RPL27, relative to vehicle.
Setting [4] is: Donor B, normalized to RPL27, relative to vehicle.

Each structure is given as a SMILES string.

In general, IC50 refers to the concentration that gives 50% inhibition. A high value points to weaker potency in that assay. `Cc1cc(CN(C)C)ccc1-c1cnc(NCc2c(F)ccc3c2CCO3)n2cc(C#N)nc12` [Example 32] came in with a 50% inhibitory concentration (IC50) in series [1] of 100 to 500 nM. Moreover, the “fold increase in HBG1 mRNA levels” value in the series on HBG1 mRNA (setting [3]) and in the series on HBG1 mRNA (setting [4]) was 4 fold throughout. In series [2] (donors A and B, 14-day differentiated cells), the “% F cells (live cells with fetal hemoglobin)” value is reported as 30-40%. In series [2] (donors A and B, 14-day differentiated cells, 15.625 nM to 1 μM), the “fold increase in % F cells” value was 2.6-2.7 fold. For the same compound, the “fold increase in HBG2 mRNA levels” value in the series on HBG2 mRNA (setting [3]) is 9 fold; with HBG2 mRNA (setting [4]) it was 4 fold.
On to `NC(=O)NO` [HU, hydroxyurea, reference compound], for which the “fold increase in HBG1 mRNA levels” value with HBG1 mRNA (Donor B, 20 μM, relative to vehicle) was found to be 1.7 fold. Besides, the “fold increase in % F cells” value in series [2] (Donor A, 20 μM) is 1.9 fold; in series [2] (Donor B, 20 μM) it was 1.3 fold. The “fold increase in HBG2 mRNA levels” value with HBG2 mRNA (Donor A, 20 μM, relative to vehicle) was found to be 2.7 fold.
`CN(C)CCn1nccc1-c1cnc(NCc2c(F)ccc3c2CCO3)n2cc(C#N)nc12` [Example 230, 8-(1-(2-(dimethylamino)ethyl)-1H-pyrazol-5-yl)-5-(((5-fluoro-2,3-dihydrobenzofuran-4-yl)methyl)amino)imidazo[1,2-c]pyrimidine-2-carbonitrile]: the 50% inhibitory concentration (IC50) in series [1] is less than 100 nM.
